How the values were obtained:
FLT3 = molecular target: T1, FLT3 (Homo sapiens, UniProt P36888); experiment: FLT-3 Omnia continuous-read kinase assay; assay type: biochemical; conditions: 30 min pre-incubation, [ATP]=500 μM; read-out: IC50_APP FLT3
T1 construct: purchased PV3182
T1 sequence (P36888 27-993): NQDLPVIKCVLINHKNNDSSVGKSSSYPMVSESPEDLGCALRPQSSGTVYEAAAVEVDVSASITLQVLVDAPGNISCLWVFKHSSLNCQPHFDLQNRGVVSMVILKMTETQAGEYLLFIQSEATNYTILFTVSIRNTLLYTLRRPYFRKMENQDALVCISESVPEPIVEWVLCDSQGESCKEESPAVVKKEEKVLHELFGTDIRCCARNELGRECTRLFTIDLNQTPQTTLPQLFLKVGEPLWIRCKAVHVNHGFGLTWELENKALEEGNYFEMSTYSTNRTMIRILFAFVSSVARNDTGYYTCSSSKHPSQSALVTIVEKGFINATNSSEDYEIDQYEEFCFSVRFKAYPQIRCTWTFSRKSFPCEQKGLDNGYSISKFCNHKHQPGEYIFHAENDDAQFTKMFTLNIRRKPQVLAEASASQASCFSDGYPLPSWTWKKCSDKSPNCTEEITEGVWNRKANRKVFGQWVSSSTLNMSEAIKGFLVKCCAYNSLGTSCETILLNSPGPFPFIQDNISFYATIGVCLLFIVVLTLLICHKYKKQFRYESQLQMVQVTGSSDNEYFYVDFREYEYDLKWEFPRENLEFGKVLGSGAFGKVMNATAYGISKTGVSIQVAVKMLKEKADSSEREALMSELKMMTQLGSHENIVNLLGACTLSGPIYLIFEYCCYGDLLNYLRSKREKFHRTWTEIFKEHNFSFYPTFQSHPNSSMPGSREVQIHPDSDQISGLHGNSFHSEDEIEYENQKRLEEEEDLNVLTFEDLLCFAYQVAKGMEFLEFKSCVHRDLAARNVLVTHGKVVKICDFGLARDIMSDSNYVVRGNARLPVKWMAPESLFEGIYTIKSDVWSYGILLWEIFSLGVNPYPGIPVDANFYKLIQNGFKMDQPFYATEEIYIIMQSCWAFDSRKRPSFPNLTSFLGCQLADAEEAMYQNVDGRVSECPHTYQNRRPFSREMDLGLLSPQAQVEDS
Protocol: (§1) A. KDR and FLT-3 Omnia Assay for Potency Assessment:
(§2) The protocol below describes a continuous-read kinase assay to measure inherent potency of Avila Therapeutics' compounds against active KDR and FLT-3 enzymes. The assay was performed substantially as described by the vendor (Invitrogen, Carlsbad, Calif.; http://www.invitrogen.com/content.cfm?pageid=11338.)
(§3) Briefly, 10× stocks of KDR from Invitrogen or BPS Bioscience (PV3660 or 40301) and FLT-3 (PV3182) enzymes, 1.13×ATP (AS001A) and Y9-Sox or Y12-Sox peptide substrates (KCZ1001) were prepared in 1× kinase reaction buffer consisting of 20 mM Tris, pH 7.5, 5 mM MgCl2, 1 mM EGTA, 5 mM β-glycerophosphate, 5% glycerol (10× stock, KB002A) and 0.2 mM DTT (DS001A). 5 μL of enzyme were pre-incubated in a Corning (#3574) 384-well, white, non-binding surface microtiter plate (Corning, N.Y.) for 30 min at 27° C. with a 0.5 μL volume of 50% DMSO and serially diluted compounds prepared in 50% DMSO. Kinase reactions were started with the addition of 45 μL of the ATP/Y9 or Y5-Sox peptide substrate mix and monitored every 30-90 seconds for 60 minutes at λex360/λem485 in a Synergy^4 plate reader from BioTek (Winooski, Vt.). At the conclusion of each assay, progress curves from each well were examined for linear reaction kinetics and fit statistics (R^2, 95% confidence interval, absolute sum of squares). Initial velocity (0 minutes to 20+ minutes) from each reaction was determined from the slope of a plot of relative fluorescence units vs time (minutes) and then plotted against inhibitor concentration to estimate IC50 from Log [Inhibitor] vs Response, Variable Slope model in GraphPad Prism from GraphPad Software (San Diego, Calif.).
[FLT-3]=15 nM, [ATP]=500 μM and [Y5-Sox peptide]=10 μM (ATP KMapp=470 μM)
(§4) The reported IC50_APP and IC50 values are in units of nM.

KDR = KDR (Homo sapiens, UniProt P35968); experiment: KDR Omnia continuous-read kinase assay; assay type: biochemical; design: purchased Invitrogen or BPS Bioscience PV3660 or 40301; conditions: 30 min pre-incubation; read-out: IC50_APP KDR
Protocol: as §1, §2
as §3, with “Calif.). […]” for “Calif.).”
as §4

Chain of KDR (P35968 20-1356): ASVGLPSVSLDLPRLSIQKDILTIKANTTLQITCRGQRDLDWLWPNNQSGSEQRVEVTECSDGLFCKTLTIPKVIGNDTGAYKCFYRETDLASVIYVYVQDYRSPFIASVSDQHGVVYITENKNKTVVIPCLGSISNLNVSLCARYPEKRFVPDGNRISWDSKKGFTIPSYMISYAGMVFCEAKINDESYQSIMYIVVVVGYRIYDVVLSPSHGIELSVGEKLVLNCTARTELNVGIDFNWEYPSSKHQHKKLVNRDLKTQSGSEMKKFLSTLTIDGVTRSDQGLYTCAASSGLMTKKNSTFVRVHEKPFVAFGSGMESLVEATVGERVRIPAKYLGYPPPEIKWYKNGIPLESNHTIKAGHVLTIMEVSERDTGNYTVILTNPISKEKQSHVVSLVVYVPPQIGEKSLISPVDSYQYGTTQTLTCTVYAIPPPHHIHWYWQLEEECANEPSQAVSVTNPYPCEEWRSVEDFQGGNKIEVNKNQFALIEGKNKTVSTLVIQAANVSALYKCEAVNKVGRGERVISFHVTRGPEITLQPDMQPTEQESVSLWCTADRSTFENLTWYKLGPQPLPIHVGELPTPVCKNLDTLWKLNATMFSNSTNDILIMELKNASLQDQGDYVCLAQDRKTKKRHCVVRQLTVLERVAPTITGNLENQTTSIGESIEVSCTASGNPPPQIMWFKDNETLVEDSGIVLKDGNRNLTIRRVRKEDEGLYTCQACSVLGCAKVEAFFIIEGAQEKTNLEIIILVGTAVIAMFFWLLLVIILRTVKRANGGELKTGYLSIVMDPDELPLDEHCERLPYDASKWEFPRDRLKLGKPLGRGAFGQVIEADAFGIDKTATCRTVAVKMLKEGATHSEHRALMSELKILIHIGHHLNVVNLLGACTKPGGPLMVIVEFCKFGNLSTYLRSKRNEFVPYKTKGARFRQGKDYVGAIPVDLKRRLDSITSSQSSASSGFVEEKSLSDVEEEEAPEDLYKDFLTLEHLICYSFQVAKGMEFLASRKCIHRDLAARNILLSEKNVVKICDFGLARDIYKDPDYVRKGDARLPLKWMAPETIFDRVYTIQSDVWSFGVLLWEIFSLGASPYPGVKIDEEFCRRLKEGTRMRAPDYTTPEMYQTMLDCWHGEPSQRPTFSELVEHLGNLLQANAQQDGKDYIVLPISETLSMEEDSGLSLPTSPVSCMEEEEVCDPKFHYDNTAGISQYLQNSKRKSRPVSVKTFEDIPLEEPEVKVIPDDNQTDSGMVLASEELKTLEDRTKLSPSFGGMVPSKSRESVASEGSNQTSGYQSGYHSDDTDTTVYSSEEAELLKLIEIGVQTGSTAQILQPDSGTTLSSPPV

For `C=CC(=O)N1CCC(Sc2nc(Nc3ncc(C#N)s3)cc(N3CCN(C)CC3)n2)CC1` [II-2, 2-(2-(1-Acryloylpiperidin-4-ylthio)-6-(4-methylpiperazin-1-yl)pyrimidin-4-ylamino)thiazole-5-carbonitrile], which IC50 (FLT3) is on record?
Its IC50 is 0.508 nM.

And the IC50 (KDR)?
The IC50 was 51.4 nM.
